Experiments:
[1] = biological target: T1, Endothelin-1 receptor (Rattus norvegicus, UniProt P26684); assay: Displacement of 125I-ET1 from ETA receptor in rat A7R5 cells; assay type: cell-based
T1 sequence (P26684 whole entry): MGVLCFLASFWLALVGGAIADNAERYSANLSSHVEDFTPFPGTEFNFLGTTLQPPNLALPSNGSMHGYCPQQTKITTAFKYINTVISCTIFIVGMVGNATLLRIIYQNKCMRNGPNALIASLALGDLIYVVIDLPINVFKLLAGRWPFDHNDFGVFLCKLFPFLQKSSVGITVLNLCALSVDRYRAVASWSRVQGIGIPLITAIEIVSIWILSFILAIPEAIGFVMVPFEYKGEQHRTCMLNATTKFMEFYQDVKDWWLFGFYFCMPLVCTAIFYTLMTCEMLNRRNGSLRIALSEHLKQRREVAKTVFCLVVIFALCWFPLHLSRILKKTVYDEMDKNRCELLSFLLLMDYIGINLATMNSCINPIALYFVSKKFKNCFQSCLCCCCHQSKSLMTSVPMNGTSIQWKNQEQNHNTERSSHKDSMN

[2] = biological target: T2, Endothelin receptor type B (Sus scrofa, UniProt P35463); assay: Displacement of 125I-ET1 from pig ETB receptor transfected in grivet COS7 cells; assay type: cell-based
T2 sequence (P35463 whole entry): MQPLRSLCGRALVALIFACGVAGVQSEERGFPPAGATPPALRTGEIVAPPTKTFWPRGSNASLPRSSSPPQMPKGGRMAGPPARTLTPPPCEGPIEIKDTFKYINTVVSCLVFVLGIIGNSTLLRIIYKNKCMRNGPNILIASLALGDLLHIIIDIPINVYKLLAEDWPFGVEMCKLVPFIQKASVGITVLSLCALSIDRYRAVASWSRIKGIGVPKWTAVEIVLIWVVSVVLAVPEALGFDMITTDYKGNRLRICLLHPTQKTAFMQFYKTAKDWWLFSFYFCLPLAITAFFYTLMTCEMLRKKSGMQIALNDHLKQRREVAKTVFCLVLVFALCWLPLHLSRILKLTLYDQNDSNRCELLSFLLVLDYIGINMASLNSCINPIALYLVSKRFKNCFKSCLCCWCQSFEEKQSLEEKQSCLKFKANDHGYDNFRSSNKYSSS

[3] = biological target: T3, Endothelin-1 receptor (Homo sapiens, UniProt P25101); assay: Displacement of 125I-ET1 from human placenta cell membrane ETA receptor expressed in Baculovirus-infected insect cells
T3 sequence (P25101 whole entry): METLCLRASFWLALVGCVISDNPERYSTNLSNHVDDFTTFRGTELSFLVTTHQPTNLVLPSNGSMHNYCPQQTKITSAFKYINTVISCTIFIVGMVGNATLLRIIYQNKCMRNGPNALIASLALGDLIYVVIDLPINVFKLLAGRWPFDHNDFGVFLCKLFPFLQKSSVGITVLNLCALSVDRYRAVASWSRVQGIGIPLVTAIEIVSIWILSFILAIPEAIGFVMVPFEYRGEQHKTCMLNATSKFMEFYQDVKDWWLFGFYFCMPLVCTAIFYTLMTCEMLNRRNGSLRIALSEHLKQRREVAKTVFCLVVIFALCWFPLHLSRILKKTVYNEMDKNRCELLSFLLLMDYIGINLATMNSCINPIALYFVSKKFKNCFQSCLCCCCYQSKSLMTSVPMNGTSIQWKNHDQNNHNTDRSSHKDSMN

[4] = biological target: T3, Endothelin-1 receptor; assay: Displacement of [125I]-ET-1 from human ETA receptor expressed in CHO cell membranes after 2 hrs by scintillation counting
[5] = biological target: T4, Endothelin receptor type B (Homo sapiens, UniProt P24530); assay: Displacement of [125I]-ET-1 from human ETB receptor expressed in CHO cell membranes after 2 hrs by scintillation counting
T4 sequence (P24530 whole entry): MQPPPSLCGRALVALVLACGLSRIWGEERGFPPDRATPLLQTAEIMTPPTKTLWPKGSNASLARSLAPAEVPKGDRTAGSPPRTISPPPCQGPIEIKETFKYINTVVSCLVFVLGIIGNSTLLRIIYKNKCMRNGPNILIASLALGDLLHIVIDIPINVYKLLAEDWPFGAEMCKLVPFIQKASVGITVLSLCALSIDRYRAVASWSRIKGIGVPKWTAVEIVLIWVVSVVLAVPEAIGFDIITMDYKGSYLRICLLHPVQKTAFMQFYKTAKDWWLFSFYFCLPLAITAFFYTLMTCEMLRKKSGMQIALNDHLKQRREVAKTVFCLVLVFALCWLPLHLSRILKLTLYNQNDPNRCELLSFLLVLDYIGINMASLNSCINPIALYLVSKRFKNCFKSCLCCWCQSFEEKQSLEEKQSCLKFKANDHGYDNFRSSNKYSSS

[6] = biological target: T3, Endothelin-1 receptor; assay: Displacement of radioligand from ETA receptor (unknown origin) expressed in fall armyworm sf9 cell membranes
[7] = biological target: T3, Endothelin-1 receptor; assay: Displacement of 125I-ET1 from ETA receptor (unknown origin) expressed in CHO cells; assay type: cell-based
[8] = biological target: T4, Endothelin receptor type B; assay: Displacement of radioligand from ETB receptor in human placenta cell membranes
[9] = biological target: T1, Endothelin-1 receptor; assay: Antagonist activity at rat aortic ring ETA receptor in presence of ET1; details: read-out: pA2 (converted)
[10] = biological target: T3, Endothelin-1 receptor; assay: Antagonist activity at ETA receptor (unknown origin)
[11] = biological target: T4, Endothelin receptor type B; assay: Antagonist activity at human ETB receptor expressed in CHO cells in presence of ET1; assay type: cell-based

Row | IC50 [4] [nM] | IC50 [5] [nM] | Structure (SMILES) | also measured
1 | 1.4 | 90 | CCCNS(=O)(=O)Nc1ncnc(OCCOc2ncc(SC)cn2)c1Oc1cccc(OC)c1 | –
2 | 33 | 29 | CC#CCOc1nc(-c2ccnc(-c3nnn[nH]3)c2)nc(NS(=O)(=O)c2ccc(C(C)(C)C)cc2)c1Oc1ccccc1OC | –
3 | – | > 100 | COc1nc(C)cnc1NS(=O)(=O)c1cccnc1-c1ccc(-c2nnco2)cc1 [ZIBOTENTAN] | –
4 | 2 | 569 | COc1cnc(OCCOc2nc(-c3ccncc3)nc(NS(=O)(=O)NCc3ccccc3)c2-c2ccc(Cl)cc2)nc1 | –
5 | 1 | 42 | COc1ccccc1Oc1c(NS(=O)(=O)c2ccc(C(C)C)cn2)nc(N2CCOCC2)nc1OCC#CCOC(=O)c1ccccn1 | Kb [9]: 20 nM
6 | 2.4 | 516 | CCCNS(=O)(=O)Nc1ncnc(OCCOc2ncc(OC)cn2)c1-c1ccc(Br)cc1 | –
7 | 0.7 | – | CCNS(=O)(=O)Nc1ncnc(OCCOc2ncc(SC)cn2)c1-c1ccc(Br)cc1 | –

More lines, now with the values behind:

Row | Structure (SMILES) | IC50 [4] [nM] | IC50 [5] [nM] | also measured
8 | COc1ccccc1Oc1c(NS(=O)(=O)c2ccc(C(C)(C)C)cc2)nc(N2CCOCC2)nc1OCCC(=O)Nc1ccccc1C(C)C | – | – | IC50 [1]: 63 nM; IC50 [2]: 0.86 nM
9 | COc1ccccc1Oc1c(NS(=O)(=O)c2ccc(C(C)C)cn2)nc(-c2ccncc2)nc1OC | – | – | IC50 [3]: 1.4 nM
10 | O=C(O)CCNS(=O)(=O)Nc1ncnc(OCCOc2ncc(Br)cn2)c1-c1ccc(Br)cc1 | 0.7 | – | –
11 | CCCc1nc(SC2CCC(CC(=O)O)CC2)c(C(=O)O)n1Cc1cc2c(cc1Cl)OCO2 (stereo not given) | 1.1 | – | –
12 | CC(C)(C)c1ccc(S(=O)(=O)Nc2nc(-c3ncccn3)nc(OCCO)c2Oc2ccccc2O)cc1 | – | – | IC50 [6]: 26000 nM
13 | CNS(=O)(=O)Nc1ncnc(OCCOc2ncc(SC)cn2)c1-c1ccc(Cl)cc1 | 3.3 | 555 | –
14 | COc1ccccc1Oc1c(NS(=O)(=O)/C=C/c2ccccc2)nc(-c2ncccn2)nc1OCCO | – | – | IC50 [1]: 1.6 nM
15 | COc1ccccc1Oc1c(OCCO)nc(-c2ncccn2)nc1N(C)S(=O)(=O)c1ccc(C(C)(C)C)cc1 | – | – | IC50 [6]: > 100000 nM
16 | COc1ccccc1Oc1c(NS(=O)(=O)c2ccc(C)cn2)nc(-c2ccnc(-c3nnn[nH]3)c2)nc1OCCO [CLAZOSENTAN] | – | – | IC50 [7]: 1.7 nM; IC50 [8]: 175 nM
17 | COc1ccccc1Oc1c(NS(=O)(=O)c2ccc(C(C)(C)C)cc2)ncnc1OCCO | – | – | IC50 [6]: 1500 nM; Kb [9]: 955 nM
18 | CCCNS(=O)(=O)Nc1ncnc(OCCOc2ncc(SC)cn2)c1-c1ccc(Br)cc1 | 0.1 | 82 | –
19 | COc1ccccc1Cc1c(NS(=O)(=O)c2ccc(C(C)(C)C)cc2)ncnc1OCCO | – | – | IC50 [3]: 2000 nM
20 | COC(c1ccccc1)(c1ccccc1)[C@H](Oc1nc(C)cc(C)n1)C(=O)O [AMBRISENTAN] | 1 | – | –
21 | COc1ccccc1Oc1c(NS(=O)(=O)CCc2ccccc2)nc(-c2ncccn2)nc1OCCO | – | – | IC50 [10]: 25 nM
22 | CCCNS(=O)(=O)Nc1ncnc(OCCOc2ncc(SC)cn2)c1-c1ccc(Cl)cc1 | 1.5 | 686 | –
23 | CCCCNS(=O)(=O)Nc1ncnc(OCCOc2ncc(OC)cn2)c1-c1ccc(Br)cc1 | 0.5 | 210 | –
24 | COc1ccc(Cl)c(Oc2c(NS(=O)(=O)c3ccc(C(C)(C)C)cc3)nc(N3CCOCC3)nc2OCCO)c1 | – | – | IC50 [3]: 35 nM
25 | COc1ccccc1Oc1c(NS(=O)(=O)c2ccc(C(C)C)cn2)nc(-c2ccnc(-c3nnn[nH]3)c2)nc1OCCO [TEZOSENTAN] | – | – | IC50 [7]: 18 nM; IC50 [8]: 21 nM
26 | COc1ccccc1Oc1c(NS(=O)(=O)c2ccccc2)nc(-c2ncccn2)nc1OCCO | – | – | IC50 [6]: 1500 nM
27 | O=S(=O)(Nc1ncnc(OCCO)c1-c1ccc(Cl)cc1)c1ccc(C(F)(F)F)cc1 | – | – | IC50 [6]: 18000 nM; Kb [9]: 1580 nM; IC50 [8]: 2000 nM
28 | COc1ccccc1Oc1c(NS(=O)(=O)c2ccc(C)cn2)nc(-c2ccnc(-c3noc(=S)[nH]3)c2)nc1OCC1CCCO1 (stereo not given) | 6 | 288 | –
29 | COc1ccccc1Oc1c(NS(=O)(=O)c2ccc(C(C)(C)C)cc2)nc(-c2ccccc2)nc1OCCO | – | – | IC50 [6]: 800 nM; Kb [9]: 126 nM

Row | Structure (SMILES) | IC50 [4] [nM] | IC50 [5] [nM] | also measured
30 | Cc1ccc(-c2c(NS(=O)(=O)/C=C/c3ccccc3)ncnc2OCCOc2ncc(Br)cn2)cc1 | 2 | – | –
31 | CCCCNS(=O)(=O)Nc1ncnc(OCCOc2ncc(SC)cn2)c1-c1ccc(Cl)cc1 | 0.3 | – | –
32 | Cc1ccc(-c2c(NS(=O)(=O)c3ccc(C(C)(C)C)cc3)ncnc2OCCO)cc1 | – | – | IC50 [3]: 1000 nM
33 | Cc1ccc(C2=C(C(=O)O)C(c3ccc4c(c3)OCO4)Oc3ccc(OC(C)C)cc32)s1 (stereo not given) | 1 | 1800 | –
34 | COc1cccc(Oc2c(NS(=O)(=O)c3ccc(SC)cc3)cc(C(=O)Nc3ccccc3)cc2OCCO)c1 | – | – | IC50 [3]: > 100000 nM
35 | CCCNS(=O)(=O)Nc1ncnc(OCCOc2ncc(Br)cn2)c1Oc1ccccc1OC | 15.4 | 1430 | –
36 | CSc1cnc(OCCOc2ncnc(NS(=O)(=O)c3ccc(C(C)(C)C)cc3)c2-c2cc3ccccc3s2)nc1 | – | – | IC50 [1]: 0.026 nM
37 | CCCc1nc(C)ccc1O[C@@H](C(=O)NS(=O)(=O)c1ccc(C(C)C)cc1)c1ccc2c(c1)OCO2 | – | – | Ki [5]: 25 nM; Ki [4]: 0.11 nM
38 | Cc1ccc(=O)n([C@@H](C(=O)NS(=O)(=O)c2ccc(C(C)C)cc2)c2ccc3c(c2)OCO3)n1 | 29 | 3.5 | –
39 | COc1ccc(Cl)c(Oc2c(NS(C)(=O)=O)ncnc2OCCOc2ncc(S(C)(=O)=O)cn2)c1 | 3 | 542 | –
40 | COCCOc1nc(-c2ncccn2)nc(NS(=O)(=O)CCc2ccccc2)c1Oc1ccccc1OC | – | – | IC50 [1]: 3.6 nM
41 | COc1ccccc1Oc1c(NS(=O)(=O)c2ccc(C(C)(C)C)cc2)nc(-c2ncccn2)nc1OCCO [BOSENTAN] | – | – | Kb [9]: 39.8 nM
42 | CCCCNS(=O)(=O)Nc1ncnc(OCCOc2ncc(SC)cn2)c1-c1ccc(Br)cc1 | 0.3 | 63 | –
43 | COc1ccc(-c2nc(NS(=O)(=O)c3ccc(C(C)(C)C)cc3)c(Oc3ccccc3OC)c(OC[C@H](O)CO)n2)cc1 | – | – | IC50 [6]: 6800 nM; IC50 [11]: 69 nM
44 | Cc1ccc(-c2c(NS(=O)(=O)c3ccc(C(C)(C)CO)cc3)ncnc2OCCOc2ncc(Br)cn2)cc1 | – | – | IC50 [2]: 41 nM
45 | O=S(=O)(Nc1ncnc(OCCO)c1-c1ccc(Cl)cc1)c1ccc(Cl)cc1 | – | – | IC50 [6]: 10000 nM; IC50 [8]: 8500 nM
46 | COc1ccccc1Oc1c(NS(=O)(=O)CCc2cccs2)nc(N2CCOCC2)nc1OCCOC(=O)Nc1ccccn1 | 1 | 100 | –
47 | CCCNS(=O)(=O)Nc1ncnc(OCCOc2ncc(SC)cn2)c1Oc1ccccc1OC | 9.4 | 315 | –
48 | CNS(=O)(=O)Nc1ncnc(OCCOc2ncc(SC)cn2)c1-c1ccc(Br)cc1 | 2 | 290 | –
49 | COc1ccccc1Oc1c(NS(=O)(=O)c2ccc(C(C)(C)C)cc2)nc(-c2ncccn2)[nH]c1=O | – | – | IC50 [6]: 133000 nM
50 | COc1cc(OC)nc(O[C@H](C(=O)O)C(OC)(c2ccccc2)c2ccccc2)n1 | – | – | Ki [5]: 371 nM; Ki [4]: 6 nM
